In patent US20080182978A1, “ANTI-NGF ANTIBODIES AND METHODS USING SAME” (RINAT NEUROSCIENCE CORP, priority 2002, published 2008):

Experiments:
[1] = CFA arthritis rats, body weight (Example 8); type: in vivo, rat; settings: for body weight: arthritic rats
Description: Five groups of 10 animals (5-weeks old male Lewis rats-LEWIS Lew/Ico, from Charles River Laboratories—Belgium) each were included in this study: Group 1: non arthritic rats/saline (vehicle), i.v. bolus, n=10; Group 2: arthritic rats/saline (vehicle), i.v. bolus, n=10; Group 3: arthritic rats/Indomethacin 3 mg/kg, p.o daily over 10 days, n=10; Group 4: arthritic rats/E3, 1 mg/kg, i.v. bolus, n=10; Group 5: arthritic rats/911, 10 mg/kg, i.v. bolus, n=10. The doses were expressed in terms of free active substance (mg/kg). E3 and 911 were extemporaneously prepared in saline from the stock solution to the desired concentration. E3 1 mg/kg: 3.41 mL of the stock solution (0.88 mg/ml) q.s.p. 15 mL of saline. 911 10 mg/kg: 12 mL of the stock solution (2.5 mg/ml) q.s.p. 15 mL of saline. All diluted solutions (before i.v. injection) were sterilized using a sterile filter unit of 0.20.μm. pH and osmolarity values of diluted solutions were measured before each i.v. injection. Before the first i.v., osmolarity (mosm/L) for saline, E3, and 911 were 278, 269, and 308 respectively; pH for saline, E3, and 911 were 5.93, 6.76, 6.71 respectively. Before the second i.v., osmolarity (mosm/L) for saline, E3, and 911 were 280, 270, and 309 respectively; pH for saline, E3, and 911 were 5.86, 6.72, and 6.59 respectively.
E3 or 911 or saline were administered by i.v. bolus injection on Day 14 and Day 19 after arthritis induction in a coded and random order with a volume of 5 mL/kg. The non arthritic group was given by i.v. bolus injection of saline on Day 14 and Day 19 with a volume of 5 mL/kg. Indomethacin was extemporaneously prepared in 1% methylcellulose. Indomethacin was administered by oral route (p.o.) once daily over 10 days from Day 14 to Day 23 after arthritis induction in a coded and random order with a volume of 10 mL/kg.
The animals were weighed once daily from Day 0 to Day 24 (except during the week-end days before the treatment: D 1, D 2, D 8, D 9, D 10). All measurements were performed between 9:00 and 12:00 am except at D 14 (7:30-9:00 am) and D 24 (7:30-8:00 am).
All results were reported as Mean ±S.E.M. of 10 rats in each group at each time point. Paw volume was expressed in ml calculated from the mean value of the right and left paw volume. Arthritis index was calculated from the sum of the score obtained for each of the 4 paws. The nociceptive response was evaluated by the intensity of the level of vocalization recorded for each animal (mean of 4 values: 2 times/paw) in mV. The percentage inhibition of the nociceptive response was calculated from the mean value of the vehicle-treated arthritic group [(mean value of vehicle-treated arthritic group−mean value of treated arthritic group/mean value of vehicle-treated arthritic group)*100]. Body weight was expressed in grams. Hindpaws (left and right) weight was expressed in grams. Cytokine levels (IL-6, IL-1β, TNF-α and TGF-β1) of each hind paw was expressed in pg/ml. Circulating levels of TGF-β1 was expressed in pg/ml. Radiological index for each parameter (demineralization, erosions, periostal reaction, soft tissue damage, space joint, osteogenesis deformity) and total radiological index (total score) were calculated from the sum of the scores obtained for each parameter. The inter-group significances of the deviations between the values of vehicle-treated group (arthritic rats) and vehicle-treated group (non arthritic rats) were assessed by the Student t test or Mann-Whitney Rank Sum Test when equal variance or normality test failed. The inter-group significances of the deviations between the values of vehicle-treated group (arthritic rats) and E3- and 911- and Indomethacin-treated groups were assessed by the 1-way analysis of variance ANOVA followed by the non-paired Dunnett t test. A probability of P<0.05 was considered as significant. All statistical analysis was performed by the Sigmastat™ software.

[2] = test system: TGF-β1; experiment: CFA arthritis rats, circulating TGF-β1 in serum (ELISA); type: in vivo, rat; settings: D24; for serum TGF-β1 level: arthritic rats, E3 1 mg/kg or 911 10 mg/kg i.v. D14+D19, indomethacin 3 mg/kg p.o.
Description: On Day 24 (after paw volume and arthritis index measurements and test vocalization), under general anaesthesia using isoflurane (in a mixture of oxygen and nitrous oxide), the blood samples (about 800-1000 μl) was collected by capillary action with a micropipette from retroorbital sinus.
Measurement of circulating TGF-β1 (groups 1-2-3-4-5): A part of blood sample was collected in micro tubes for serum preparation at ambient temperature. Following sample collection, blood was mixed and allowed to clot for 30 minutes prior to the centrifugation. The tubes were centrifuged at about 6000 g for 3 minutes. Each serum sample (at least 100 μL, except for rat #52 and #53) was aliquoted and stored at −20° C. until sample activation for TGF-β1 analysis. These aliquots (50 vials) were kept for a period of 6 months starting from the end of the study. […] TGF-β1 levels were measured using human TGF-β1 ELISA kit (ref. DB100, Batch 212258 and 213610, R&D Systems—France).
All results were reported as Mean ±S.E.M. of 10 rats in each group at each time point. Paw volume was expressed in ml calculated from the mean value of the right and left paw volume. Arthritis index was calculated from the sum of the score obtained for each of the 4 paws. The nociceptive response was evaluated by the intensity of the level of vocalization recorded for each animal (mean of 4 values: 2 times/paw) in mV. The percentage inhibition of the nociceptive response was calculated from the mean value of the vehicle-treated arthritic group [(mean value of vehicle-treated arthritic group−mean value of treated arthritic group/mean value of vehicle-treated arthritic group)*100]. […] Radiological index for each parameter (demineralization, erosions, periostal reaction, soft tissue damage, space joint, osteogenesis deformity) and total radiological index (total score) were calculated from the sum of the scores obtained for each parameter. […]

[3] = E3 1 mg/kg or 911 10 mg/kg i.v. D14+D19, indomethacin 3 mg/kg/day p.o., D24
[4] = before treatment (dosing starts D14), D3
[5] = before treatment (dosing starts D14), D4
[6] = before treatment (dosing starts D14), D5
[7] = before treatment (dosing starts D14), D6
[8] = before treatment (dosing starts D14), D7
[9] = before treatment (dosing starts D14), D11
[10] = before treatment (dosing starts D14), D12
[11] = before treatment (dosing starts D14), D13
[12] = group later given E3 1 mg/kg or 911 10 mg/kg i.v. D14+D19 or indomethacin 3 mg/kg/day p.o., D0
[13] = D14 (selection day, first dosing)
[14] = E3 1 mg/kg or 911 10 mg/kg i.v. D14+D19, indomethacin 3 mg/kg/day p.o., D15
[15] = E3 1 mg/kg or 911 10 mg/kg i.v. D14+D19, indomethacin 3 mg/kg/day p.o., D16
[16] = E3 1 mg/kg or 911 10 mg/kg i.v. D14+D19, indomethacin 3 mg/kg/day p.o., D17
[17] = E3 1 mg/kg or 911 10 mg/kg i.v. D14+D19, indomethacin 3 mg/kg/day p.o., D18
[18] = E3 1 mg/kg or 911 10 mg/kg i.v. D14+D19, indomethacin 3 mg/kg/day p.o., D19
[19] = E3 1 mg/kg or 911 10 mg/kg i.v. D14+D19, indomethacin 3 mg/kg/day p.o., D20
[20] = E3 1 mg/kg or 911 10 mg/kg i.v. D14+D19, indomethacin 3 mg/kg/day p.o., D21
[21] = E3 1 mg/kg or 911 10 mg/kg i.v. D14+D19, indomethacin 3 mg/kg/day p.o., D22
[22] = E3 1 mg/kg or 911 10 mg/kg i.v. D14+D19, indomethacin 3 mg/kg/day p.o., D23

Molecule	maximum body weight increase compared to vehicle-treated arthritic group [1, 3]	body weight [1, 4] [grams]	body weight [1, 5] [grams]	body weight [1, 6] [grams]	body weight [1, 7] [grams]	body weight [1, 8] [grams]	body weight [1, 9] [grams]	body weight [1, 10] [grams]	body weight [1, 11] [grams]	body weight [1, 12] [grams]	body weight [1, 13] [grams]	body weight [1, 14] [grams]	body weight [1, 15] [grams]	body weight [1, 16] [grams]	body weight [1, 17] [grams]	body weight [1, 18] [grams]	body weight [1, 19] [grams]	body weight [1, 20] [grams]	body weight [1, 21] [grams]	body weight [1, 22] [grams]	further results
COc1ccc2c(c1)c(CC(=O)O)c(C)n2C(=O)c1ccc(Cl)cc1 [Indomethacin, reference compound]	about 43 g	217 ± 4	225 ± 4	235 ± 4	239 ± 4	246 ± 4	242 ± 7	235 ± 7	227 ± 6	202 ± 3	224 ± 5	230 ± 4	230 ± 5	231 ± 4	234 ± 4	236 ± 4	241 ± 4	246 ± 4	248 ± 5	253 ± 5	body weight [1, 3]: 261±5 grams; serum TGF-β1 level [2]: 57222.2 ± 3194.1 pg/mL; decrease of serum TGF-β1 level compared to vehicle-treated arthritic group ([2]; indomethacin 3 mg/kg/day p.o. 10 days): about 1.5 times
E3: humanized, affinity matured anti-NGF antagonist antibody; variable regions SEQ ID NO:1 and 2; human IgG2a (A330P331 to S330S331), kappa (antibody, V domains shown, human IgG2a constant (A330S/P331S) and kappa constant missing) VH: QVQLQESGPGLVKPSETLSLTCTVSGFSLIGYDLNWIRQPPGKGLEWIGIIWGDGTTDYNSAVKSRVTISKDTSKNQFSLKLSSVTAADTAVYYCARGGYWYATSYYFDYWGQGTLVTVS VL: DIQMTQSPSSLSASVGDRVTITCRASQSISNNLNWYQQKPGKAPKLLIYYTSRFHSGVPSRFSGSGSGTDFTFTISSLQPEDIATYYCQQEHTLPYTFGQGTKLEIKRT	about 46 g	222 ± 3	230 ± 3	241 ± 3	243 ± 3	249 ± 3	242 ± 6	237 ± 6	230 ± 5	206 ± 4	225 ± 5	223 ± 5	224 ± 5	227 ± 4	232 ± 4	235 ± 4	238 ± 4	245 ± 4	250 ± 5	257 ± 5	body weight [1, 3]: 264±5 grams; serum TGF-β1 level [2]: 69408.8 ± 3926.7 pg/mL
